For data set [1], the system named is Monographella nivalis (Microdochium nivale). In words: Monographella nivalis (Microdochium nivale) / liquid culture (foot rot cereals). Format: cell-based. Particulars: 96 h, growth inhibition photometrically 4-5 days after application, compared to untreated control.
Data set [2] has as its system Mycosphaerella graminicola (Septoria tritici). Briefly: Mycosphaerella graminicola (Septoria tritici) / liquid culture (Septoria blotch). Particulars: Zymoseptoria tritici, growth inhibition photometrically 4-5 days after application, compared to untreated control. The class given is cell-based.
In data set [3] the test system is Magnaporthe grisea (Pyricularia oryzae). Briefly: microbe, parasite or virus in culture. Format: cell-based. The conditions noted are these: read-out: control of Magnaporthe grisea.
For the next data set, the system named is Fusarium culmorum. In words: microbe, parasite or virus in culture. Format: cell-based. Particulars: read-out: control of Fusarium culmorum.
The test system of data set [4] is Glomerella lagenarium (Colletotrichum lagenarium). In words: Glomerella lagenarium (Colletotrichum lagenarium) / liquid culture (Anthracnose). Format: cell-based. Particulars: Colletotrichum orbiculare, growth inhibition photometrically 3-4 days after application, compared to untreated control.
Data set [5] deals with Botryotinia fuckeliana (Botrytis cinerea). In words: Botryotinia fuckeliana (Botrytis cinerea) / liquid culture (Gray mould). Format: cell-based. Particulars: growth inhibition photometrically 3-4 days after application, compared to untreated control.
In another data set the test system is Gaeumannomyces graminis. Briefly: Gaeumannomyces graminis / liquid culture (Take-all of cereals). The conditions noted are these: growth inhibition photometrically 4-5 days after application, compared to untreated control. The class given is cell-based.
In a further data set the test system is Sclerotinia sclerotiorum. Briefly: Sclerotinia sclerotiorum / liquid culture (cottony rot). Particulars: read-out: control of Sclerotinia sclerotiorum.
Data set [6] deals with Magnaporthe grisea (Pyricularia oryzae). Briefly: whole plant or invertebrate. The class given is in vivo. The conditions noted are these: foliar, read-out: control of Magnaporthe grisea.

Data on 8 compounds can be found in patent US10906897B2, “Microbiocidal heterobicyclic derivatives” (priority 2015, dated 2021).

Bounds are passed on as bounds.

Method for Sclerotinia sclerotiorum: Sclerotinia sclerotiorum/Liquid Culture (Cottony Rot)
Mycelia fragments of a newly grown liquid culture of the fungus are directly mixed into 5 nutrient broth (Vogels broth). After placing a (DMSO) solution of test compound into a microtiter plate (96-well format) the nutrient broth containing the fungal material is added. The test plates are incubated at 24° C. and the inhibition of growth is determined photometrically 3-4 days after application.

With `CC1(C)N=C(c2cnn3ccccc23)c2ccccc2C1(F)F` [Compound E-80, 4,4-difluoro-3,3-dimethyl-1-pyrazolo[1,5-a]pyridin-3-yl-isoquinoline], the melting point is 78 to 82 °C. The inhibition of growth at 20 ppm in data set [1] is not below 80%. Moreover, the inhibition of growth at 20 ppm in [2] is not below 80%. The inhibition of growth at 60 ppm in data set [3] was not below 80%. In the data set with Fusarium culmorum, the inhibition of growth at 20 ppm is not below 80%. Moreover, the inhibition of growth at 20 ppm in [4] is not below 80%. In data set [5], this compound gave an inhibition of growth at 20 ppm not below 80%. In the data set with Gaeumannomyces graminis, this compound gave an inhibition of growth at 20 ppm not below 80%. For the same compound, in the data set with Sclerotinia sclerotiorum, the inhibition of growth at 20 ppm is not below 80%.
For the compound `CC1(C)N=C(c2cnn3cc(Br)ccc23)c2ccccc2C1(F)F` [Compound E-81, 1-(6-bromopyrazolo[1,5-a]pyridin-3-yl)-4,4-difluoro-3,3-dimethyl-isoquinoline], the melting point fell in the range of 127 to 129 °C. The pest or weed control at 200 ppm in [6] was not below 50%. Besides, the inhibition of growth at 20 ppm in data set [1] is not below 80%. In data set [2], this compound came in with an inhibition of growth at 20 ppm not below 80%. For the same compound, in data set [3], the inhibition of growth at 60 ppm is not below 80%. Also, the inhibition of growth at 20 ppm in the data set with Fusarium culmorum was not below 80%. Besides, in [4], the inhibition of growth at 20 ppm is not below 80%. This compound also showed an inhibition of growth at 20 ppm in data set [5] not below 80%. In addition, the inhibition of growth at 20 ppm with Gaeumannomyces graminis was not below 80%. In addition, the inhibition of growth at 20 ppm in the data set on Sclerotinia sclerotiorum is not below 80%.
Turning to `CC1(C)N=C(c2cnn3cc(Br)ccc23)c2ccccc2C1=O` [Compound E-82, 1-(6-bromopyrazolo[1,5-a]pyridin-3-yl)-3,3-dimethyl-isoquinolin-4-one], the melting point was in the range of 147 to 149 °C. Besides, the inhibition of growth at 20 ppm in [1] was not below 80%. The same compound returned an inhibition of growth at 20 ppm in data set [2] not below 80%. Also, the inhibition of growth at 60 ppm in data set [3] was not below 80%. For the same compound, the inhibition of growth at 20 ppm in the data set with Fusarium culmorum is not below 80%. Further, the inhibition of growth at 20 ppm in [4] is not below 80%. The inhibition of growth at 20 ppm in data set [5] is not below 80%. In the data set with Gaeumannomyces graminis, this compound returned an inhibition of growth at 20 ppm not below 80%. For the same compound, in the data set on Sclerotinia sclerotiorum, the inhibition of growth at 20 ppm was not below 80%.
In turn, `Cc1ccc2c(C3=NC(C)(C)C(F)(F)c4ccccc43)cnn2c1` [Compound E-83, 4,4-difluoro-3,3-dimethyl-1-(6-methylpyrazolo[1,5-a]pyridin-3-yl)isoquinoline] yielded a melting point of 105 to 107 °C. The pest or weed control at 200 ppm in [6] was not below 50%. The compound also came in with an inhibition of growth at 20 ppm in data set [1] not below 80%. For the same compound, the inhibition of growth at 20 ppm in [2] is not below 80%. For the same compound, the inhibition of growth at 60 ppm in [3] was not below 80%. For the same compound, the inhibition of growth at 20 ppm in the data set with Fusarium culmorum was not below 80%. Further, the inhibition of growth at 20 ppm in [4] was not below 80%. In data set [5], this compound showed an inhibition of growth at 20 ppm not below 80%. The compound also registered an inhibition of growth at 20 ppm with Gaeumannomyces graminis not below 80%. The inhibition of growth at 20 ppm in the data set with Sclerotinia sclerotiorum was not below 80%.
`CCc1ccc2c(C3=NC(C)(C)C(F)(F)c4ccccc43)cnn2c1` [Compound E-86, 1-(6-ethylpyrazolo[1,5-a]pyridin-3-yl)-4,4-difluoro-3,3-dimethyl-isoquinoline]: the pest or weed control at 200 ppm in data set [6] is not below 50%. Also, the inhibition of growth at 20 ppm (in data set [2]; in the data set on Fusarium culmorum; in data set [4]; in data set [5]; in the data set with Gaeumannomyces graminis; in the data set on Sclerotinia sclerotiorum) was not below 80% each time. Also, the inhibition of growth at 60 ppm in data set [3] is not below 80%.
Turning to `CC1(C)N=C(c2cnn3cc(Cl)ccc23)c2ccccc2C1(F)F` [Compound E-87, 1-(6-chloropyrazolo[1,5-a]pyridin-3-yl)-4,4-difluoro-3,3-dimethyl-isoquinoline], the melting point was in the range of 113 to 118 °C. The pest or weed control at 200 ppm in data set [6] is not below 50%. For the same compound, the inhibition of growth at 20 ppm in data set [2] is not below 80%. Further, the inhibition of growth at 60 ppm in data set [3] was not below 80%. Further, the inhibition of growth at 20 ppm in the data set with Fusarium culmorum is not below 80%. In [4], the inhibition of growth at 20 ppm was not below 80%. In data set [5], this compound yielded an inhibition of growth at 20 ppm not below 80%. The compound also registered an inhibition of growth at 20 ppm in the data set with Gaeumannomyces graminis not below 80%. In addition, the inhibition of growth at 20 ppm in the data set with Sclerotinia sclerotiorum was not below 80%.
As to `Cc1c(F)ccc2c(C3=NC(C)(C)C(F)(F)c4ccccc43)cnn12` [Compound E-88, 4,4-difluoro-1-(6-fluoro-7-methyl-pyrazolo[1,5-a]pyridin-3-yl)-3,3-dimethyl-isoquinoline], the melting point lay in the range of 115 to 118 °C. For the same compound, the pest or weed control at 200 ppm in data set [6] was not below 50%. Also, the inhibition of growth at 20 ppm in [1] was not below 80%. The inhibition of growth at 20 ppm in data set [2] is not below 80%. For the same compound, in data set [3], the inhibition of growth at 60 ppm was not below 80%. The inhibition of growth at 20 ppm in the data set on Fusarium culmorum is not below 80%. In [4], the inhibition of growth at 20 ppm was not below 80%. The inhibition of growth at 20 ppm in [5] is not below 80%. For the same compound, in the data set with Gaeumannomyces graminis, the inhibition of growth at 20 ppm was not below 80%. In addition, the inhibition of growth at 20 ppm with Sclerotinia sclerotiorum was not below 80%.
Compound `CC1(C)N=C(c2cnn3c(Cl)cccc23)c2ccccc2C1(F)F` [Compound E-93, 1-(7-chloropyrazolo[1,5-a]pyridin-3-yl)-4,4-difluoro-3,3-dimethyl-isoquinoline] had a melting point of 129 to 132 °C. Besides, the pest or weed control at 200 ppm in data set [6] is not below 50%. The inhibition of growth at 20 ppm in data set [1] is not below 80%. The inhibition of growth at 20 ppm in [2] is not below 80%. In addition, the inhibition of growth at 60 ppm in [3] is not below 80%. In addition, the inhibition of growth at 20 ppm in the data set with Fusarium culmorum is not below 80%. The same compound showed an inhibition of growth at 20 ppm in [4] not below 80%. The inhibition of growth at 20 ppm in [5] was not below 80%. Besides, in the data set with Sclerotinia sclerotiorum, the inhibition of growth at 20 ppm is not below 80%.
